Reference: patent US9879235B2, “Wheat plants having increased resistance to imidazolinone herbicides” (University of Saskatchewan, priority 2001, dated 2018)

Experiments:
[1] = system: P00.45 (EM2 in a hexaploid background); experiment: Tolerance of doubled haploid line P00.45 (parental check in allelism studies); assay type: in vivo, T. aestivum ssp aestivum; settings: 20 g/ha imazamox
Text: EMIMI is the designation of the T. monococcum EM2 source parent. Crocus is the designation of the T. aestivum ssp aestivum parent used. 605 florets of crocus were pollinated with EMIMI pollen, resulting in 84 F1 seed. 38,409 florets of the F1 plants were pollinated using Crocus pollen, resulting in 2 embryos which were embryo-rescued. The resultant BC1F1 plants were selfed to BC1F2 and treated with 20 g/ha of imazamox. […] Resistant plants were crossed by the bread wheat variety Tea1, representing the 3rd dose of bread wheat. Plants of the resultant line, with a pedigree of Crocus*2/EMIMI//CDC Tea1/3/ were crossed with either AC Elsa or AC Superb and coded respectively, 98PH8 (Elsa cross) and 98PH9 (Superb cross), 98PH8 was crossed an additional six times with AC Elsa and 98PH8 was crossed an additional six times with AC Superb. Two populations were coded as follows: • P00.35=98PH8/6*Elsa=Crocus*2/EM2//CDC Tea1/3/7*AC Elsa • P00.45=98PH9/6*Superb=Crocus*2/EM2//CDC Tea1/3/7*AC Superb. Segregation of the backcross-derived plants in both populations fit an expected 1:1 tolerant:susceptible single gene model when treated with 20 g/h of imazamox. […] Doubled haploids were produced from each population using the maize pollination method. Seven resistant DH lines were obtained from P00.35 and 78 resistant DH lines were obtained from P00.45. […]

[2] = system: double-haploid derived line of EM2+FS4; experiment: Seedling injury rating, two-gene line EM2+FS4; assay type: in vivo, wheat
Description: (§1) Four genotypes were tested for tolerance to two different rates of imazamox. Genotypes included an FS4 only line, BW755; Tea1 15A, previously described as having two independent loci for tolerance to Imi-herbicides; a double-haploid derived line of EM2+FS4, and a line derived from the cross of 15A and 11A, through conventional bulk selection of the most tolerant plants over successive generations at increasing rates of imazamox. Rates of imazamox included 200 and 600 grams per hectare. Seedling injury of the 18 to 25 plants per treatment per genotype was rated on a per plant basis using five categories ranging from death to no injury.

[3] = system: backcross-derived plants in populations P00.35 and P00.45; experiment: Segregation of backcross-derived plants P00.35 and P00.45; assay type: in vivo, T. aestivum; settings: 20 g/h of imazamox; single heterozygous tolerance gene
Text: (§2) EMIMI is the designation of the T. monococcum EM2 source parent. Crocus is the designation of the T. aestivum ssp aestivum parent used. 605 florets of crocus were pollinated with EMIMI pollen, resulting in 84 F1 seed. 38,409 florets of the F1 plants were pollinated using Crocus pollen, resulting in 2 embryos which were embryo-rescued. The resultant BC1F1 plants were selfed to BC1F2 and treated with 20 g/ha of imazamox. […] Resistant plants were crossed by the bread wheat variety Tea1, representing the 3rd dose of bread wheat. Plants of the resultant line, with a pedigree of Crocus*2/EMIMI//CDC Tea1/3/ were crossed with either AC Elsa or AC Superb and coded respectively, 98PH8 (Elsa cross) and 98PH9 (Superb cross), 98PH8 was crossed an additional six times with AC Elsa and 98PH8 was crossed an additional six times with AC Superb. Two populations were coded as follows: • P00.35=98PH8/6*Elsa=Crocus*2/EM2//CDC Tea1/3/7*AC Elsa • P00.45=98PH9/6*Superb=Crocus*2/EM2//CDC Tea1/3/7*AC Superb. Segregation of the backcross-derived plants in both populations fit an expected 1:1 tolerant:susceptible single gene model when treated with 20 g/h of imazamox. […] Doubled haploids were produced from each population using the maize pollination method. Seven resistant DH lines were obtained from P00.35 and 78 resistant DH lines were obtained from P00.45.

[4] = system: 00DIMI#17 (EM2 in durum background); experiment: Tolerance of EM2 durum recovery 00DIMI#17; assay type: in vivo, T. turgidum ssp durum
Description: (§3) T. aestivum was used as the bridging species to transfer the EM2 gene from T. monococcum to T. turgidum. In each generation, plants were treated with at least a 20 g/h rate of imazamox prior to selecting plants as parents. An intermediate T. aestivum conversion with the pedigree “Crocus*2/EM2//CDC Tea1/3/2*AC Superb” tolerant to imazamox was crossed by the durum line AC Avonlea. The resultant F1 plants were selfed to produce an F2 population, from which 52/390 plants were identified as resistant (no injury from herbicide application). Some of these were used as females and crossed by AC Avonlea. The resultant BC1F1 plants were again crossed by AC Avonlea. For the subsequent two generations, AC Avonlea was used as the female. The resultant line was designated 00DIMI#17 and had the pedigree: AC Avonlea*2/3/Crocus*2/EM2//CDC Tea1/3/2*AC Superb//3*AC Avonlea. This line was selfed to the F2, and F2 plants treated with 40 g/h of imazamox. Resistant F2 plants were advanced to the F4 generation.
(§4) The breeding history of the lines tested was previously described (Example 2). […] The doubled haploid derived line P00.45, composed of EM2 in a hexaploid background, was tolerant to 20 g/ha imazamox as a parental check in allelism studies described in Example 3; all plants of the susceptible hexaploid check were killed at that rate.

[5] = system: EM2 line in Einkorn background; experiment: Field evaluation of herbicide injury, EM2 line; assay type: in vivo, Triticum monococcum; settings: for overall crop injury: three rates of imazamox
Description: (§5) Approximately 15,000 seeds of the Triticum monococcum spring habit accession “TM23” was treated with EMS. The method used was: (1) presoak seed in water for four hours, (2) treat with 0.3% EMS for 16 hours, (3) rinse in water for 8 hours, (4) air-dry for four hours, and (5) plant the seed. Some of the harvested seed was further increased without selection for tolerance to imidazolinone herbicides. The harvested seed was planted and treated with 40 g/ha of imazamox. A total of 120 kg of seed was planted, resulting in approximately 2.4 million plants treated, assuming a kernel weight of 35 mg and 70% seedling emergence. The generation of seed screened ranged from M2 to M5, with over 72% of seed at least M3. Five plants were identified as tolerant, designated EM1 through EM5, and transplanted to a greenhouse for seed production. EM2 was increased under imidazolinone herbicide selection prior to initial field testing (Example 4).
(§6) The EM2 line tolerant to imazamox (Example 1) was evaluated at a single field location for various agronomic characteristics that could be affected by herbicide injury. The 1998 data are means of two replications. Yield data from 1999 and 2000 are means of four replications. The other data from 1999 are means of two replications.
(§7) The EM2 line was evaluated for overall crop injury at three rates of imazamox, three times during the growing season.

BW755 (FS4 only line) = experiment: Seedling injury rating, one-gene line; assay type: in vivo, wheat; settings: 200 and 600 grams per hectare
Description: as §1

Tea1 15A = experiment: Seedling injury rating, two-gene line Tea1 15A; assay type: in vivo, wheat
Description: as §1

[6] = system: Einkorn check (non-herbicide tolerant); experiment: Field evaluation of herbicide injury, Einkorn check; assay type: in vivo, Triticum monococcum
Description: as §6, §7

[7] = system: susceptible hexaploid check / susceptible wheat plants; experiment: Tolerance test, susceptible hexaploid check; assay type: in vivo, T. aestivum
Text: In all the following discussion, the application rate of the imidazolinone herbicide imazamox that was used in the inheritance studies was 20 grams per hectare.
as §4

[8] = system: EMS-treated Triticum monococcum accession TM23; experiment: Selection of tolerant plants after EMS mutagenesis; assay type: in vivo; settings: 40 g/ha of imazamox, approximately 2.4 million plants treated
Description: as §5

[9] = system: BC1F2 plants of Crocus*2/EMIMI; experiment: Herbicide treatment of BC1F2 plants (Crocus x EMIMI); assay type: in vivo, T. aestivum x T. monococcum; settings: 20 g/ha of imazamox, 24 plants treated
Text: as §2

[10] = system: F2 population of Crocus*2/EM2//CDC Tea1/3/2*AC Superb crossed by AC Avonlea; experiment: Herbicide selection in F2 of EM2 conversion x AC Avonlea; assay type: in vivo, T. aestivum x T. turgidum; settings: at least a 20 g/h rate of imazamox
Description: as §3

[11] = system: line derived from the cross of 15A and 11A; experiment: Seedling injury rating, three-gene line; assay type: in vivo, wheat
Description: as §1

[12] = system: susceptible durum line used as a check; experiment: Tolerance test, susceptible durum check; assay type: in vivo, T. turgidum ssp durum; settings: 80 g/h of imazamox
[13] = higher rate, 600 grams per hectare
[14] = lower rate, 200 grams per hectare

## COCc1cnc(C2=NC(C)(C(C)C)C(=O)N2)c(C(=O)O)c1 (centres unmarked) [imazamox]
[1]
  tolerance: tolerant
[2]; 200 and 600 grams per hectare
  plants killed: No plants were killed
[2]; [13]
  seedling injury: all were injured
[2]; [14]
  seedling injury: No injury
[3]
  injury of plants scored as tolerant: sustained some injury
[4]; F4:5 lines, 80 g/h of imazamox
  tolerance of plants: all plants were tolerant
[4]; F4:5 lines, 124 plants treated with 80 g/h
  susceptible plants: no susceptible plants were found
[4]; F4 plants, 80 g/h imazamox
  survival of plants: All 53 F4 plants tested survived
[5]; 40 g/ha rate, field
  tolerance: excellent tolerance
[5]; 1999, three times during the growing season
  overall crop injury: only slight injury
[5]; 2000
  overall crop injury: no injury
BW755 (FS4 only line)
  plants killed: No plants were killed
  seedling injury: injured at both rates
Tea1 15A; 200 and 600 grams per hectare
  plants killed: No plants were killed
Tea1 15A; [13]
  seedling injury: all were injured
Tea1 15A; [14]
  seedling injury: No injury
[6]; 40 grams of imazamox, field
  susceptibility of plants: all plants dying
[6]; 2000, non-herbicide tolerant check
  overall crop injury: virtually killed
[7]; 20 g/ha imazamox
  plant kill: killed
[7]; 20 grams per hectare
  plant kill at the rate of the inheritance studies: sufficient to kill
[8]
  plants identified as tolerant: Five
[9]
  fully resistant plants: 11
  plants that showed some injury: 7
  susceptible plants: 6
[10]
  plants identified as resistant (no injury from herbicide application): 52/390
[11]; 200 and 600 grams per hectare
  plants killed: No plants were killed
[11]; 200 and 600 grams per hectare, line still segregating
  seedling injury: some plants exhibiting injury at both rates
[11]; highest rate, 600 grams per hectare
  plants without injury: approximately half the plants had no injury
[12]
  plant kill: killed
